Data from article PMC4704022, “Insights on FXR selective modulation. Speculation on bile acid chemical space in the discovery of potent and selective agonists” (Scientific Reports, 2016).

Tests used:
[1] = target: T1, FXR-LBD (Homo sapiens, UniProt Q96RI1); experiment: Alphascreen coactivator recruitment assay, FXR-LBD with SRC-1 peptide; assay type: biochemical; conditions: ligand at 2 μM, effect of 6 set as 100%
T1 construct: 10 nM of purified GST-tagged FXR-LBD protein
T1 sequence (Q96RI1 262-486 limits assumed): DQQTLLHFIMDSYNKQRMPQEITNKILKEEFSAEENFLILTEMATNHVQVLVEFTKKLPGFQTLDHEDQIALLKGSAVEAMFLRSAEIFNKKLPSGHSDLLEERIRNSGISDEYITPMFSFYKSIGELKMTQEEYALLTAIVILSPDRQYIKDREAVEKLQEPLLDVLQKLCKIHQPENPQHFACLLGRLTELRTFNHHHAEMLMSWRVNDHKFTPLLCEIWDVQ
Method: Figure 7 Coactivator recruitment assay measuring a direct interaction of FXR with SRC-1. Anti-GST-coated acceptor beads captured GST-fusion FXR-LBD and the biotinylated-SRC-1 peptide was captured by the streptavidin donor beads. FXR-LBD recruited SRC-1 in the presence of ligand at 2 μM and, upon illumination at 680 nm, chemical energy is transferred from donor to acceptor beads across the complex streptavidin-donor/Src-1-biotin/ligand/GSTFXR-LBD/anti-GST-acceptor and a signal is produced. Results are expressed as percentage of the effect of 6 arbitrarily settled as 100%. NT is referred to the experiment carried out in absence of ligand. Results are expressed as mean ± standard error.
The relative potency of selected members of this novel family was then investigated by a detailed measurement of concentration-response curve of the 3-deoxy sulfate derivative 9, the corresponding carboxylic acid 10, and the 3β-hydroxyl alcohol 15 and carboxylic acid derivative 17, all sharing the 6α/7α configuration, on FXR transactivation. […] In this assay, the ligand induces the recruitment of the coactivator to the LBD of hFXR.
Anti-GST-coated acceptor beads were used to capture the GST-fusion FXR-LBD, whereas the biotinylated-SRC-1 peptide was captured by the streptavidin donor beads. Upon illumination at 680 nm, chemical energy is transferred from donor to acceptor beads across the complex streptavidin-donor/Src-1-biotin/GSTFXR-LBD/anti-GST-acceptor and a signal is produced. The assay was performed in white, low-volume, 384-well Optiplates (PerkinElmer) using a final volume of 25 μL containing final concentrations of 10 nM of purified GST-tagged FXR-LBD protein, 30 nM biotinylated Src-1 peptide, 20 μg/mL anti-GST acceptor beads acceptor beads, and 10 μg/mL of streptavidin donor bead (PerkinElmer). The assay buffer contained 50 mM Tris (pH 7.4), 50 mM KCl, 0.1% BSA, and 1 mM DTT. […] After the addition of the detection mix (acceptor and donor beads), the plates were incubated in the dark for 4 h at room temperature and then were read in an Envision microplate analyzer (PerkinElmer).

[2] = target: T2, FXR (Homo sapiens, UniProt Q96RI1); experiment: FXR transactivation luciferase reporter assay in transfected HepG2 cells; assay type: cell-based
T2 construct: expressed in transfected cells; host or cells: HepG2
T2 sequence (Q96RI1 1-486): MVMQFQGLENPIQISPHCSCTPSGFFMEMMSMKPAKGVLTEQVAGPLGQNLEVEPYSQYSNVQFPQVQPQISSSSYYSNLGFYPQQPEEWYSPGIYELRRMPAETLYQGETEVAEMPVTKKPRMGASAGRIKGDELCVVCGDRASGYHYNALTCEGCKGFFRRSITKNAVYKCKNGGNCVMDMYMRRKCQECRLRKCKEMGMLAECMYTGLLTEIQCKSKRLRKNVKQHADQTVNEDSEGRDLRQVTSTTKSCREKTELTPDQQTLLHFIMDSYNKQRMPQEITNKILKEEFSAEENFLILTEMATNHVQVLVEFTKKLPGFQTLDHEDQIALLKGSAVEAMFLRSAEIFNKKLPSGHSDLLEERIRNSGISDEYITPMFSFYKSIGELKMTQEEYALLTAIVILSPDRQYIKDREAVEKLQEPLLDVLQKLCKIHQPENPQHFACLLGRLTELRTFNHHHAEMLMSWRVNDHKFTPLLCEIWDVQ
T2 sequence (P19793 1-462 partner): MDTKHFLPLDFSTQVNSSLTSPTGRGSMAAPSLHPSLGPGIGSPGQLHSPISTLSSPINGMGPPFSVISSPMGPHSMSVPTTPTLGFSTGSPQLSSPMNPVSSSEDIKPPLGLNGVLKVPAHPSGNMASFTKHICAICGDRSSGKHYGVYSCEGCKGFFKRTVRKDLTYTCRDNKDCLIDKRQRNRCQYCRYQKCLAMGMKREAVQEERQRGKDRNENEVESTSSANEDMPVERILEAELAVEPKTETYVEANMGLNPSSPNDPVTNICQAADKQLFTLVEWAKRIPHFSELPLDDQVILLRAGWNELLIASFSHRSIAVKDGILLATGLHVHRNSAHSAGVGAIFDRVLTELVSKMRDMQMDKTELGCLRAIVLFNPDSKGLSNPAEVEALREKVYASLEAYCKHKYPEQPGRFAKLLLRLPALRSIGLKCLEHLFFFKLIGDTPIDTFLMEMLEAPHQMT
Method: Figure 6 Transactivation assays on FXR. (A) HepG2 cells were transfected with pSG5-FXR, pSG5-RXR, pCMV-βgal, and p(hsp27)TKLUC vectors. […] Twenty-four hour post transfection cells were stimulated with increasing concentrations of each agent: range from 100 nM to 10 μM.
To evaluate the transcriptional activity of FXR, HepG2 cells were transiently transfected with Fugene HD reagent (Promega) using the followings plasmids: pCMVSPORT-humanFXR, pSG5RXR, p(hsp27)TKLUC and pGL4.70, a plasmid containing the Renilla gene used for luciferase normalization.

Compound: CC[C@H]1[C@@H](O)[C@@H]2[C@H](CC[C@]3(C)[C@@H]([C@H](C)CCC(=O)O)CC[C@@H]23)[C@@]2(C)CCCC[C@@H]12 [compound 10, 6α-ethyl-7α-hydroxy-5β-cholan-24-oic acid]
- Recruitment of SRC-1 coactivator to FXR-LBD (in words) [1]: very potent activity in the recruitment of SRC-1 co-activator
- Tauro-conjugated bile acids (tMu, tCA, tHCA, tCDCA, tDCA, tLCA), plasmatic concentration (mice, 15 mg/kg ip, 6 h): unaffected
- Blood concentration of 7α-hydroxy-4-cholesten-3-one (mice, 15 mg/kg, indirect measure of CYP7A1 activity): reduced
- Form of the compound found in blood (mouse, in vivo, ip, 15 mg/kg): only found in the conjugated form with taurine
- EC50 ([2]; HepG2 cells transfected with FXR, luciferase reporter, 100 nM to 10 μM): 0.95 µM
- FXR transactivation activity (in words) ([2]; HepG2 cells, compounds at 10 μM, CDCA 10 μM and 6-ECDCA 1 μM as positive controls): potent agonists of FXR
